{
  "source": "patent US5391552A",
  "about": "“Diphenylpiperazine derivative and drug for circulatory organ containing the same” (Pola Chemical Industries, Inc., priority 1990, dated 1995)",
  "key": {"[1]": {"test_system": "calcium", "experiment": "Antagonism against calcium: inhibition of KCl-induced contraction of rat aorta ring specimens (Magnus tube, Test Example 1)", "set-up": "species or system Male Wistar rats", "conditions": "inhibits 50% of the maximum contraction by KCl (10-60 mM); rat aorta rings, 37 °C; read-out: 50% inhibitory concentration", "experimental": "Male Wistar rats (300-350g) were exsanguinated to death and submitted to thoracotomy to take off aortae. Ring specimens having a width of 3 to 4 mm were prepared from the aortae. The specimen was suspended in a Magnus tube which was filled with Krebs Henseleit liquid of 37°±0.5° C., aerated with a mixing gas (95% of O2 and 5% of CO2) flowing in the liquid. A load of approximately 2 g was given to the specimen, and a tension variation was isometrically recorded."}, "[2]": {"test_system": "vertebral artery", "experiment": "Variation of vertebral artery blood flow amount in anesthetized dogs (Test Example 2)", "assay_type": "in vivo, crossbred adult dogs", "conditions": "i.v.", "experimental": "After female and male crossbred adult dogs were put under anesthesia by using pentobarbital-Na, a cannula for blood pressure measuring and a cannula for drug dosing were set to the femoral artery and the femoral vein, respectively. The blood flow was measured using a probe fixed to the vertebral artery."}},
  "data": [
    {"smiles": "OC(CNCCc1ccccc1)CN1CCN(C(c2ccccc2)c2ccccc2)CC1", "note": "(stereo not drawn) [Compound 3, 1-Diphenylmethyl-4-[2-hydroxy-3-(2-phenylethylamino)propyl]piperazine]", "values": [
      {"measurement": "IC50", "setting": "[1]", "result": 1300, "unit": "nM"}
    ]},
    {"smiles": "COc1ccccc1CCNCC(O)CN1CCN(C(c2ccccc2)c2ccccc2)CC1", "note": "(stereo not drawn) [Compound 4, 1-Diphenylmethyl-4-[2-hydroxy-3-{2-(2-methoxyphenyl)ethylamino}propyl]piperazine]", "values": [
      {"measurement": "IC50", "setting": "[1]", "result": 1300, "unit": "nM"}
    ]},
    {"smiles": "COc1ccc(CCNCC(O)CN2CCN(C(c3ccccc3)c3ccccc3)CC2)cc1OC", "note": "(stereo not drawn) [Compound 5, 1-[3-{2-(3,4-Dimethoxyphenyl)ethylamino}-2-hydroxypropyl]-4-diphenylmethylpiperazine]", "values": [
      {"measurement": "IC50", "setting": "[1]", "result": 1200, "unit": "nM"}
    ]},
    {"smiles": "OC(CNc1ccccc1)CN1CCN(CCCC(c2ccc(F)cc2)c2ccc(F)cc2)CC1", "note": "(stereo not drawn) [Compound 6, 1-[4,4-Bis(4-fluorophenyl)butyl]-4-(2-hydroxy-3-phenylaminopropyl)piperazine]", "values": [
      {"measurement": "IC50", "setting": "[1]", "result": 220, "unit": "nM"}
    ]},
    {"smiles": "OC(CSc1ccccc1)CN1CCN(CCCC(c2ccc(F)cc2)c2ccc(F)cc2)CC1", "note": "(stereo not drawn) [Compound 10, 1-[4,4-Bis(4-fluorophenyl)butyl]-4-(2-hydroxy-3-phenylthiopropyl)piperazine.2HCl]", "values": [
      {"measurement": "IC50", "setting": "[1]", "result": 160, "unit": "nM"},
      {"measurement": "Variation of the blood flow amount", "setting": "[2]; 10 μg/kg", "result": 18, "unit": "%"},
      {"measurement": "Variation of the blood flow amount", "setting": "[2]; 30 μg/kg", "result": 14, "unit": "%"},
      {"measurement": "Variation of the blood flow amount", "setting": "[2]; 100 μg/kg", "result": 80, "unit": "%"},
      {"measurement": "Variation of the blood flow amount", "setting": "[2]; 300 μg/kg", "result": 125, "unit": "%"}
    ]},
    {"smiles": "COC(CSc1ccccc1)CN1CCN(CCCC(c2ccc(F)cc2)c2ccc(F)cc2)CC1", "note": "(stereo not drawn) [Compound 12, 1-[4,4-Bis(4-fluorophenyl)butyl]-4-(2-methoxy-3-phenylthiopropyl)piperazine.2HCl]", "values": [
      {"measurement": "IC50", "setting": "[1]", "result": 200, "unit": "nM"}
    ]},
    {"smiles": "CC(=O)OC(CSc1ccccc1)CN1CCN(CCCC(c2ccc(F)cc2)c2ccc(F)cc2)CC1", "note": "(stereo not drawn) [Compound 14, 1-(2-Acetoxy-3-phenylthiopropyl)-4-[4,4-bis(4-fluorophenyl)butyl]piperazine.2HCl]", "values": [
      {"measurement": "IC50", "setting": "[1]", "result": 280, "unit": "nM"}
    ]},
    {"smiles": "O[C@H](CSc1ccccc1)CN1CCN(CCCC(c2ccc(F)cc2)c2ccc(F)cc2)CC1", "note": "[Compound 16, (S)-(-)-1-[4,4-Bis(4-fluorophenyl)butyl]-4-(2-hydroxy-3-phenylthiopropyl)piperazine]", "values": [
      {"measurement": "IC50", "setting": "[1]", "result": 100, "unit": "nM"}
    ]},
    {"smiles": "O[C@@H](CSc1ccccc1)CN1CCN(CCCC(c2ccc(F)cc2)c2ccc(F)cc2)CC1", "note": "[Compound 18, (R)-(+)-1-[4,4-Bis(4-fluorophenyl)butyl]-4-(2-hydroxy-3-phenylthiopropyl)piperazine]", "values": [
      {"measurement": "IC50", "setting": "[1]", "result": 130, "unit": "nM"}
    ]},
    {"smiles": "Cc1ccc(SCC(O)CN2CCN(CCCC(c3ccc(F)cc3)c3ccc(F)cc3)CC2)cc1", "note": "(stereo not drawn) [Compound 20, 1-[4,4-Bis(4-fluorophenyl)butyl]-4-[2-hydroxy-3-(4methylphenylthio)propyl]piperazine]", "values": [
      {"measurement": "IC50", "setting": "[1]", "result": 270, "unit": "nM"}
    ]},
    {"smiles": "Nc1ccc(SCC(O)CN2CCN(CCCC(c3ccc(F)cc3)c3ccc(F)cc3)CC2)cc1", "note": "(stereo not drawn) [Compound 22, 1-[(4-Aminophenylthio)-2-hydroxypropyl]-4-[4,4bis(4-fluorophenyl)butyl]piperazine]", "values": [
      {"measurement": "IC50", "setting": "[1]", "result": 630, "unit": "nM"}
    ]},
    {"smiles": "OC(CSCc1ccccc1)CN1CCN(C(c2ccc(F)cc2)c2ccc(F)cc2)CC1", "note": "(stereo not drawn) [Compound 24, 1-[Bis(4-fluorophenyl)methyl]-4-(2-hydroxy-3-phenylmethylthiopropyl)piperazine]", "values": [
      {"measurement": "IC50", "setting": "[1]", "result": 1400, "unit": "nM"}
    ]},
    {"smiles": "OC(CSCc1ccccc1)CN1CCN(CCCC(c2ccc(F)cc2)c2ccc(F)cc2)CC1", "note": "(stereo not drawn) [Compound 28, 1-[4,4-Bis(4-fluorophenyl)butyl]-4-(2-hydroxy-3-phenylmethylthiopropyl)piperazine]", "values": [
      {"measurement": "IC50", "setting": "[1]", "result": 110, "unit": "nM"}
    ]},
    {"smiles": "OC(CSc1ccc(Cl)cc1)CN1CCN(CCCC(c2ccc(F)cc2)c2ccc(F)cc2)CC1", "note": "(stereo not drawn) [Compound 31, 1-[4,4-Bis(4-fluorophenyl)butyl]-4-[3-(4-chlorophenylthio)-2-hydroxyproply]piperazine]", "values": [
      {"measurement": "IC50", "setting": "[1]", "result": 1100, "unit": "nM"}
    ]},
    {"smiles": "COc1ccccc1SCC(O)CN1CCN(CCCC(c2ccc(F)cc2)c2ccc(F)cc2)CC1", "note": "(stereo not drawn) [Compound 35, 1-[4,4-Bis(4-fluorophenyl)butyl]-4-[2-hydroxy-3-(2-methoxyphenylthio)propyl]piperazine]", "values": [
      {"measurement": "IC50", "setting": "[1]", "result": 160, "unit": "nM"},
      {"measurement": "Variation of the blood flow amount", "setting": "[2]; 10 μg/kg", "result": 13, "unit": "%"},
      {"measurement": "Variation of the blood flow amount", "setting": "[2]; 30 μg/kg", "result": 26, "unit": "%"},
      {"measurement": "Variation of the blood flow amount", "setting": "[2]; 100 μg/kg", "result": 66, "unit": "%"},
      {"measurement": "Variation of the blood flow amount", "setting": "[2]; 300 μg/kg", "result": 87, "unit": "%"}
    ]},
    {"smiles": "OC(CSc1ccc(F)cc1)CN1CCN(CCCC(c2ccc(F)cc2)c2ccc(F)cc2)CC1", "note": "(stereo not drawn) [Compound 37, 1-[4,4-Bis(4-fluorophenyl)butyl]-4-[3-(4-fluorophenylthio)-2-hydroxypropyl]piperazine]", "values": [
      {"measurement": "IC50", "setting": "[1]", "result": 140, "unit": "nM"}
    ]},
    {"smiles": "Oc1ccc(SCC(O)CN2CCN(CCCC(c3ccc(F)cc3)c3ccc(F)cc3)CC2)cc1", "note": "(stereo not drawn) [Compound 39, 1-[4,4-Bis(4-fluorophenyl)butyl]-4-[2-hydroxy-3-(4-hydroxyphenylthio)propyl]piperazine]", "values": [
      {"measurement": "IC50", "setting": "[1]", "result": 340, "unit": "nM"}
    ]},
    {"smiles": "COc1ccc(SCC(O)CN2CCN(CCCC(c3ccc(F)cc3)c3ccc(F)cc3)CC2)cc1", "note": "(stereo not drawn) [Compound 41, 1-[4,4-Bis(4-fluorophenyl)butyl]-4-[2-hydroxy-3-(4-methoxyphenylthio)propyl]piperazine]", "values": [
      {"measurement": "IC50", "setting": "[1]", "result": 430, "unit": "nM"},
      {"measurement": "Variation of the blood flow amount", "setting": "[2]; 10 μg/kg", "result": 12, "unit": "%"},
      {"measurement": "Variation of the blood flow amount", "setting": "[2]; 30 μg/kg", "result": 25, "unit": "%"},
      {"measurement": "Variation of the blood flow amount", "setting": "[2]; 100 μg/kg", "result": 66, "unit": "%"},
      {"measurement": "Variation of the blood flow amount", "setting": "[2]; 300 μg/kg", "result": 87, "unit": "%"}
    ]},
    {"smiles": "COc1cccc(SCC(O)CN2CCN(CCCC(c3ccc(F)cc3)c3ccc(F)cc3)CC2)c1", "note": "(stereo not drawn) [Compound 43, 1-[4,4-Bis(4-fluorophenyl)butyl]-4-[2-hydroxy-3-(3-methoxyphenylthio)propyl]piperazine]", "values": [
      {"measurement": "IC50", "setting": "[1]", "result": 280, "unit": "nM"},
      {"measurement": "Variation of the blood flow amount", "setting": "[2]; 10 μg/kg", "result": 7, "unit": "%"},
      {"measurement": "Variation of the blood flow amount", "setting": "[2]; 30 μg/kg", "result": 15, "unit": "%"},
      {"measurement": "Variation of the blood flow amount", "setting": "[2]; 100 μg/kg", "result": 55, "unit": "%"},
      {"measurement": "Variation of the blood flow amount", "setting": "[2]; 300 μg/kg", "result": 131, "unit": "%"}
    ]},
    {"smiles": "COc1ccccc1SCC(O)CN1CCN(C(c2ccc(F)cc2)c2ccc(F)cc2)CC1", "note": "(stereo not drawn) [Compound 45, 1-[Bis(4-fluorophenyl)methyl]-4-[2-hydroxy-3-(2methoxyphenylthio)propyl]piperazine]", "values": [
      {"measurement": "IC50", "setting": "[1]", "result": 1100, "unit": "nM"}
    ]},
    {"smiles": "OC(CSc1ccccc1)CN1CCN(CC(c2ccccc2)c2ccccc2)CC1", "note": "(stereo not drawn) [Compound 47, 1-(2,2-Diphenylethyl)-4-(2-hydroxy-3-phenylthiopropyl)piperazine]", "values": [
      {"measurement": "IC50", "setting": "[1]", "result": 690, "unit": "nM"}
    ]},
    {"smiles": "OC(CSc1ccccc1)CN1CCN(CCCC(c2ccccc2)c2ccccc2)CC1", "note": "(stereo not drawn) [Compound 51, 1-(4,4-Diphenylbutyl)-4-(2-hydroxy-3-phenylthiopropyl)piperazine]", "values": [
      {"measurement": "IC50", "setting": "[1]", "result": 140, "unit": "nM"}
    ]},
    {"smiles": "OC(CSc1ccccc1)CN1CCN(C(c2ccc(F)cc2)c2ccc(F)cc2)CC1", "note": "(stereo not drawn) [Compound 53, 1-[Bis(4-fluorophenyl)methyl]-4-(2-hydroxy-3-phenylthiopropyl)piperazine]", "values": [
      {"measurement": "IC50", "setting": "[1]", "result": 1200, "unit": "nM"}
    ]},
    {"smiles": "COc1ccc(SCC(O)CN2CCN(C(c3ccc(F)cc3)c3ccc(F)cc3)CC2)cc1", "note": "(stereo not drawn) [Compound 55, 1-[Bis (4-fluorophenyl)methyl]-4-[2-hydroxy-3-(4-methoxyphenylthio)propyl]piperazine]", "values": [
      {"measurement": "IC50", "setting": "[1]", "result": 1300, "unit": "nM"}
    ]},
    {"smiles": "OC(CSc1cccc2ccccc12)CN1CCN(CCCC(c2ccc(F)cc2)c2ccc(F)cc2)CC1", "note": "(stereo not drawn) [Compound 57, 1-[4,4-Bis(4-fluorophenyl)butyl]-4-[2-hydroxy-3-(1-naphthylthio)propyl]piperazine]", "values": [
      {"measurement": "IC50", "setting": "[1]", "result": 340, "unit": "nM"}
    ]},
    {"smiles": "Fc1ccc(C(c2ccc(F)cc2)N2CCN(C/C=C/c3ccccc3)CC2)cc1", "note": "[Furnarizine, furnarizine, reference compound]", "values": [
      {"measurement": "Variation of the blood flow amount", "setting": "[2]; 30 μg/kg", "result": 8, "unit": "%"},
      {"measurement": "Variation of the blood flow amount", "setting": "[2]; 100 μg/kg", "result": 27, "unit": "%"},
      {"measurement": "Variation of the blood flow amount", "setting": "[2]; 300 μg/kg", "result": 44, "unit": "%"},
      {"measurement": "Variation of the blood flow amount", "setting": "[2]; 1000 μg/kg", "result": 55, "unit": "%"}
    ]}
  ]
}
